The source of these data is paper PMC8467340, “Fine Tuning of Cholinesterase and Glutathione-S-Transferase Activities by Organoruthenium(II) Complexes” (Biomedicines, 2021).

Assay [1] has as its target T1, electric eel AChE (eeAChE) (Electrophorus electricus, UniProt O42275).
T1 construct: purchased Sigma-Aldrich
The conditions noted are these: previously reported; read-out: Enzyme Inhibition eeAChE IC50; cited from earlier work.

Assay [2] concerns the target T2, horse serum BChE (hsBChE) (Equus caballus, UniProt P81908).
T2 construct: horse serum BChE (hsBChE); purchased Sigma-Aldrich; host or cells: horse serum
The conditions noted are these: previously reported; read-out: Enzyme Inhibition hsBChE IC50; cited from earlier work.

Assay [3] relates to horse liver GST (hlGST). Particulars: previously reported, cited from earlier work; for IC50: read-out: Enzyme Inhibition hlGST IC50.
The target in assay [4] is T3, human placenta GST (hGST) (Homo sapiens, UniProt P09211).
T3 construct: human placenta GST (hGST); purchased Sigma-Aldrich; host or cells: human placenta
T3 sequence (P09211 2-210 limits assumed): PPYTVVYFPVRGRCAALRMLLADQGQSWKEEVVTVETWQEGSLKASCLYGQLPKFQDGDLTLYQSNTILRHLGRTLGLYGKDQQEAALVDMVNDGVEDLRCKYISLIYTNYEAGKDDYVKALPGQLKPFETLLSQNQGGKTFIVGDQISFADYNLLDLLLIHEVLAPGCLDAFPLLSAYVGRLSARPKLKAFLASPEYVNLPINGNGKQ
The conditions noted are these: previously reported; read-out: Enzyme Inhibition hGST IC50; cited from earlier work.

Assay [5] has as its target T1, electric eel AChE (eeAChE). As to the kind of experiment: Cholinesterase inhibition assay (modified Ellman method), eeAChE. Particulars: for IC50: mean ± SEM of three independent measurements, / = No activity, read-out: Enzyme Inhibition eeAChE IC50; for type of inhibition of eeAChE: Dixon plots. Format: biochemical. The procedure:
(§1) The activities of the ChEs were determined using a modification of the Ellman method adapted for microtiter plates, as described in [47]. Stock solutions of complexes 4, 5, 6, 7, 8 and 10, as well as of ligands L2 and L3 (1 mg/mL) were prepared in 100% MeOH, whereas stock solutions of complexes 2 and 3 (1 mg/mL) were prepared in 5% DMSO in deionised water. Positive control (1 mg/mL neostigmine bromide; Sigma-Aldrich, St. Louis, MO, USA) was also prepared in 100% MeOH. The stock solutions of the potential inhibitors and the positive and negative controls were added to the wells, and progressively diluted in 100 mM potassium phosphate buffer (pH 7.4) to the final volume of 50 μL. Then, 100 μL acetylthiocholine chloride (1 mM) and 5,5′-dithiobis-2-nitrobenzoic acid (0.5 mM) in 100 mM potassium phosphate buffer (pH 7.4) were added into the microtiter plate wells. Three ChEs were used as the enzyme sources: electric eel AChE (eeAChE); human recombinant AChE (hrAChE), and horse serum BChE (hsBChE) (all Sigma-Aldrich, St. Louis, MO, USA). These were dissolved in the same buffer to the final concentration of 0.0075 U/mL. Finally, 50 μL of each ChE solution was added into the microtiter plate wells to start the reaction, which was followed spectrophotometrically at 405 nm at 25 °C over 5 min using a kinetic microplate reader (Dynex Technologies Inc., Chantilly, VA, USA). The blank reactions without the inhibitors were run with the appropriate dilutions of the solvents in which the tested compounds were initially diluted (100% MeOH or 5% aqueous DMSO), and the readings were corrected according to the appropriate blanks. Each measurement was repeated at least three times. […] The data were analysed using the OriginPro software (OriginPro 2020, OriginLab Corporation, Northampton, MA, USA).

For assay [6], the target named is T4, human recombinant AChE (hrAChE) (Homo sapiens, UniProt P22303).
T4 construct: purchased Sigma-Aldrich
T4 sequence (P22303 32-614): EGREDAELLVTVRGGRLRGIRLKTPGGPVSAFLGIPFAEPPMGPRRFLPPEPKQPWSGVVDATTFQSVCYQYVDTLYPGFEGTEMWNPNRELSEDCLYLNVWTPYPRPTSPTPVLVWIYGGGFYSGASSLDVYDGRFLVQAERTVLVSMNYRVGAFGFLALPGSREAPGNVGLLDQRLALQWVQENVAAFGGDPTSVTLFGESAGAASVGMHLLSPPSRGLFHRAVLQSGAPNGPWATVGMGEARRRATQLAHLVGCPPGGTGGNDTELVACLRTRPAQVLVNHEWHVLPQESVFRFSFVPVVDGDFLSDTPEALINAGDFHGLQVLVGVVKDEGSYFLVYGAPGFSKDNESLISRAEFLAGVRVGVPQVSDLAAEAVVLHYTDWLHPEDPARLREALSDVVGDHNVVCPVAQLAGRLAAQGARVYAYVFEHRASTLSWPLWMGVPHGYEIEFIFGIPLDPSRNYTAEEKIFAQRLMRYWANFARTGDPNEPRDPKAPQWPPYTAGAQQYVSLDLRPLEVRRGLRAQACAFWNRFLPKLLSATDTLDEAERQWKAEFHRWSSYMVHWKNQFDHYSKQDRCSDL
The assay is described as follows: Cholinesterase inhibition assay (modified Ellman method), hrAChE. In kind it is biochemical. The conditions noted are these: for IC50: mean ± SEM of three independent measurements, / = No activity, read-out: Enzyme Inhibition hrAChE IC50; for type of inhibition of hrAChE: Dixon plots. How it is done: as §1
On the technique in general: Ellman's reagent forms a yellow product with free thiols.

Assay [7] concerns the target T2, horse serum BChE (hsBChE). The assay is described as follows: Cholinesterase inhibition assay (modified Ellman method), hsBChE. Format: biochemical. The conditions noted are these: for type of inhibition of hsBChE: Dixon plots; for IC50: mean ± SEM of three independent measurements, / = No activity, read-out: Enzyme Inhibition hsBChE IC50. How it is done: as §1
Assay [8] deals with horse liver GST (hlGST). The assay is described as follows: Glutathione S-transferase inhibition assay (Habig method), hlGST. In kind it is biochemical. Particulars: for IC50: mean ± SEM of three independent measurements, / = No activity, read-out: Enzyme Inhibition hlGST IC50; for type of inhibition of hlGST: Dixon plots; for Ki: determined for compounds with IC50 < 33 μM, substrate 200, 400, 800 μM, read-out: Enzyme Inhibition hlGST Ki. How it is done: (§2) The activities of the GSTs were determined according to the method described by Habig et al. (1974) using a cell imaging multi-mode reader (Cytation 3; BioTek, Winooski, VT, USA). The stock solutions of inhibitors were prepared as described for the ChE inhibition assays. Then the stock solutions of the potential inhibitors and negative controls were added to the wells, and progressively diluted in 100 mM sodium phosphate buffer (pH 6.5) to the final volume of 50 μL. 1-Chloro-2,4-dinitrobenzene (Sigma-Aldrich, St. Louis, MO, USA) was dissolved in ethanol to 50 mM, and then diluted with 100 mM sodium phosphate buffer (pH 6.5) to a final concentration of 4 mM. This solution (50 μL) and 2 mM reduced glutathione (100 μL) in the same buffer were added into the microtiter plate wells. Two GSTs were used as the enzyme sources: horse liver GST (hlGST) and human placenta GST (hGST) (Sigma-Aldrich, St. Louis, MO, USA). These were dissolved in 100 mM sodium phosphate buffer (pH 6.5), and 50 μL of these enzyme solutions were added into the wells to start the reaction. The final enzyme concentration was 0.044 U/mL. The blank reactions without the inhibitors were run with the appropriate dilutions of the solvents in which the tested compounds were initially diluted (100% MeOH or 5% aqueous DMSO), and the readings were corrected according to the appropriate blanks. The reactions were followed spectrophotometrically at 340 nm at 25 °C over 4 min. Each measurement was repeated at least three times. […] The data were analysed using the OriginPro software (OriginPro 2020, OriginLab Corporation, Northampton, MA, USA).

Assay [9] concerns the target T3, human placenta GST (hGST). As to the kind of experiment: Glutathione S-transferase inhibition assay (Habig method), hGST. In kind it is biochemical. The conditions noted are these: for IC50: mean ± SEM of three independent measurements, / = No activity, read-out: Enzyme Inhibition hGST IC50; for type of inhibition of hGST: Dixon plots; for Ki: determined for compounds with IC50 < 33 μM, substrate 200, 400, 800 μM, read-out: Enzyme Inhibition hGST Ki. How it is done:
as §2

Assay [10] deals with T4, human recombinant AChE (hrAChE). Particulars: previously reported; read-out: Enzyme Inhibition hrAChE IC50; cited from earlier work.

Like-named read-outs stand apart in the source and are kept apart here.

T2 sequence (P81908 whole entry): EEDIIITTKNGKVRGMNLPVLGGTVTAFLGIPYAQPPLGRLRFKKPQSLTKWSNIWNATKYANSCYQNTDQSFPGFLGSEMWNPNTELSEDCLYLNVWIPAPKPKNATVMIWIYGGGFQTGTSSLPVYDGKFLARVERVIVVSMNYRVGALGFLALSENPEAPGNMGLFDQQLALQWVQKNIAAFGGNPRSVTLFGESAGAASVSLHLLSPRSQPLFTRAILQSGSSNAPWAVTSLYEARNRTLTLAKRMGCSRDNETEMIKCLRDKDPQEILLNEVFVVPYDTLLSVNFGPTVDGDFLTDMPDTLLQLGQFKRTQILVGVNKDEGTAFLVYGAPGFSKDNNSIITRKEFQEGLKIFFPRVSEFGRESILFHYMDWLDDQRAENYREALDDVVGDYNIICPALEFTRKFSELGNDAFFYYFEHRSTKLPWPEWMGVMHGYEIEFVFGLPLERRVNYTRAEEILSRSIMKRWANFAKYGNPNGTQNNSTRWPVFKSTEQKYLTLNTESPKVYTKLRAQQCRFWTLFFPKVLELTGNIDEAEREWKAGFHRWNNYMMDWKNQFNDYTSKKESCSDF
T1 sequence (O42275 24-633): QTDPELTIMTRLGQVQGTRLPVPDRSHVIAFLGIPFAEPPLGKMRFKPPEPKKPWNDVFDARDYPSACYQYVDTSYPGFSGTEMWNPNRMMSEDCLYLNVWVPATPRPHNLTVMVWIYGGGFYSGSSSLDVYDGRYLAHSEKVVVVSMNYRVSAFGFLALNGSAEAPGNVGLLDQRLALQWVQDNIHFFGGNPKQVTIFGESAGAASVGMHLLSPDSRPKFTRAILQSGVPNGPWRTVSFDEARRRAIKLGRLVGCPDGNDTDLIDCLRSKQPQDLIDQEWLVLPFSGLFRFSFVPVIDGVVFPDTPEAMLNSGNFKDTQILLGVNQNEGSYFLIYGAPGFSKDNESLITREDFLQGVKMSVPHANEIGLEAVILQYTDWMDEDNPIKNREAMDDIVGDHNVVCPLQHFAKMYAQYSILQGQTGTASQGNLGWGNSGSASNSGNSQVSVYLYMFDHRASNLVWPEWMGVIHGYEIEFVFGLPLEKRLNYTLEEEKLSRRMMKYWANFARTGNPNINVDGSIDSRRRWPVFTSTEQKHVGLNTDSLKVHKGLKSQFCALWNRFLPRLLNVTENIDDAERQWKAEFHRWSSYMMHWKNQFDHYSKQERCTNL

Take “1-hydroxypyridine-2(1H)-thione [Complex L1]”: the IC50 (in assay [1]; in assay [2]; with horse liver GST (hlGST) [3]; in assay [4]) was over 100 µM in each case.
For the molecule `Cc1ccc(C(C)C)cc1.FC(F)(F)C1=[O+][Ru-]([P+]23CN4CN(CN(C4)C2)C3)[O]C(c2ccccc2Br)=C1.F[P-](F)(F)(F)(F)F` [Complex 7, [RuCym(L2)pta]PF6], the IC50 – broadly, the concentration at which inhibition is half-maximal – in assay [5] is over 100 µM; in assay [6] it was over 100 µM; in assay [7] it was 19.2 ± 1.5 µM; on horse liver GST (hlGST) [8], over 100 µM; in [9] it was over 100 µM. For the same molecule, the “type of inhibition of hsBChE” value in assay [7] is “reversible and competitive”. Also, the Ki – broadly, a dissociation constant, usually derived from enzyme kinetics or from competition with a known ligand – in assay [7] (determined for compounds with IC50 < 33 μM, substrate 0.125, 0.25, 0.5 mM, read-out: Enzyme Inhibition hsBChE Ki) came to 9.26 µM.
On to `O=[C]=[Ru-2]12(=[C]=O)([O][n+]3ccccc3[S]1)[O][n+]1ccccc1[S]2` [Complex 8, [Ru(L1)2(CO)2]], for which the IC50 is over 100 µM in assay [5], over 100 µM in assay [6], over 100 µM in assay [7] and 16.6 ± 1.4 µM in assay [9]. Further, in the assay on horse liver GST (hlGST) [8], the “type of inhibition of hlGST” value was “reversible and competitive”. The values for the Ki (on horse liver GST (hlGST) [8]; in [9]) were 0.85 µM and 9.65 µM, respectively. The “type of inhibition of hGST” value in assay [9] was “reversible and competitive”.
`O=C(CC(=O)C(F)(F)F)c1ccccc1Br` [Complex L2, 1-(2-bromophenyl)-4,4,4-trifluorobutane-1,3-dione, reference compound]: the IC50 (in [5]; in assay [6]; in assay [7]; on horse liver GST (hlGST) [8]; in assay [9]) was over 100 µM throughout.
`CCCCCCCCCCCCCCCCCC(=O)CC(=O)c1ccccc1` [Complex L3, 1-phenylicosane-1,3-dione, reference compound]: the IC50 (in [5]; in assay [6]; in assay [7]; at horse liver GST (hlGST) [8]; in [9]) was over 100 µM each time.
In the case of `CN(C)C(=O)Oc1cccc([N+](C)(C)C)c1` [Neostigmine methylsulphate, reference compound], the half-maximal inhibitory concentration (IC50) was 5.98 ± 1 µM in assay [5], 92.7 ± 2.2 µM in assay [7], over 100 µM at horse liver GST (hlGST) [8] and over 100 µM in [9].
As for `Cc1ccc(C(C)C)cc1.Cc1ccc(C(C)C)cc1.[Cl][Ru][Cl].[Cl][Ru][Cl]` [Precursor 9, dichloro(p-cymene) ruthenium(II) dimer [Ru(p-cymene)Cl2]2], the 50% inhibitory concentration (IC50) in assay [1] was over 100 µM; in assay [10], over 100 µM; in assay [2], 32.7 ± 4.3 µM; with horse liver GST (hlGST) [3], over 100 µM; in assay [4], over 100 µM.
[RuCym(L1)Br] [Complex 2]: the “type of inhibition of eeAChE” value in [5] was “reversible and competitive”. Besides, in assay [6], the “type of inhibition of hrAChE” value is “reversible and competitive”. The “type of inhibition of hsBChE” value in assay [7] is “reversible and competitive”. Also, in the assay on horse liver GST (hlGST) [8], the “type of inhibition of hlGST” value was “reversible and competitive”; the Ki is 0.79 µM. In [9], the “type of inhibition of hGST” value is “reversible and competitive”; the Ki was 4.08 µM; the IC50 was 4.64 ± 3.7 µM.
As to [RuCym(L1)Cl] [Complex 1], the IC50 with horse liver GST (hlGST) [3] is 2.26 ± 0.5 µM; in assay [4] it was 45 ± 5.2 µM. In addition, on horse liver GST (hlGST) [3] (read-out: Enzyme Inhibition hlGST Ki), the Ki was 10 µM.
Take [RuCym(L1)I] [Complex 3]: the “type of inhibition of eeAChE” value in [5] is “reversible and competitive”. Besides, in [6], the “type of inhibition of hrAChE” value was “reversible and competitive”. The “type of inhibition of hsBChE” value in assay [7] was “reversible and competitive”. Further, in the assay with horse liver GST (hlGST) [8], the “type of inhibition of hlGST” value was “reversible and competitive”; the Ki is 1.6 µM. In addition, in assay [9], the “type of inhibition of hGST” value is “reversible and competitive”; the Ki is 8.6 µM; the IC50 came to 16 ± 3 µM.
Take [RuCym(L1)pta]PF6 [Complex 6]: the IC50 at horse liver GST (hlGST) [8] is over 100 µM.
For “tricarbonyldichlororuthenium(II) dimer [Ru(CO)3Cl2]2 [Precursor 10, reference compound]”, on horse liver GST (hlGST) [8], the inhibitory constant (Ki) amounted to 2.93 µM and the IC50 came to 9.76 ± 0.4 µM. In [9], the “inhibition of hGST (in words)” value is listed as “only weakly” and the IC50 came to 97.7 ± 1 µM.
